Assay results published in patent publication US20240262842A1, “SMALL MOLECULE INHIBITORS OF KRAS G12C MUTANT” (Merck Sharp & Dohme LLC, priority 2021, published 2024).
pIC50: −log10 of the molar value. Where two headings read alike, the source gives them in different places.

Tests used:
[1] = test system: MIA PaCa-2 cells; assay: Growth inhibition activity on KRAS-G12C mutant cell line (CellTiter-Glo 3D); format: cell-based, human; conditions: MIA PaCa-2, 3-day culture with compound
Procedure: MIA PaCa-2 cells (given by Sumitomo Dainippon Pharma Co., Ltd.), which are a KRAS-G12C mutant human pancreas cancer cell line, were suspended in a 10% fetal bovine serum-containing RPMI1640 medium (manufactured by Fujifilm Wako Pure Chemical Corporation). The cell suspension was seeded into each well of a 384-well U bottom microplate and cultured in an incubator containing 5% CO2 gas at 37° C. for 1 day. The compounds obtained in the “Preparation of Compounds” section were used as test compounds and were dissolved in DMSO, respectively, and each test compound was diluted with DMSO to give a concentration 500 times the final concentration. The resultant solution of the test compound in DMSO was diluted with the medium used for suspending cells and added to each well of the cell-culture plate to give a DMSO final concentration of 0.2%, followed by culture in an incubator containing 5% CO2 gas at 37° C. for another 3 days. The cell count after 3-day culture in the presence of the test compound was measured using CellTiter-Glo 3D Reagent (manufactured by Promega Corporation). All wells were added with CellTiter-Glo 3D Reagent and mixed for 10 minutes. 30 minutes after mixing, luminescence was measured by a plate reader. The growth inhibition rate was calculated from the following equation, and the concentration of the test compound at which 50% inhibition was achieved (IC50 (nM)) was determined.
[formula] • T: the emission intensity in a well into which a test compound was added. • C: the emission intensity in a well into which a test compound was not added.

[2] = target: T1, interaction between GMPPNP-bound recombinant K-Ras4B G12C mutant protein and cRAF RAS-binding domain (cRAF-RBD) (Homo sapiens, UniProt P01116, G12C); assay: Inhibitory activity on interaction between KRAS G12C and cRAF (Alpha technology)
T1 construct: His-tag (N)
T1 sequence (P01116 with tags, fused parts or gaps isoform P01116-2 G12C): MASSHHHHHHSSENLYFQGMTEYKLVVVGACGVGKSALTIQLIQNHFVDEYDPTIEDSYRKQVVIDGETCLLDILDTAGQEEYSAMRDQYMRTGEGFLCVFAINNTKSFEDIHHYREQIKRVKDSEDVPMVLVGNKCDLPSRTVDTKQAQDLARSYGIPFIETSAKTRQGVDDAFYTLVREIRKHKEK
Procedure: Interaction between recombinant K-Ras4B G12C mutant protein (amino acids 1-169, SEQ ID NO:2) and cRAF RAS-binding domain (cRAF-RBD, amino acids 50-132, Jena Biosciences GmbH) was measured using Alpha technology (PerkinElmer Inc.).
Recombinant KRAS G12C protein with an N-terminal His-tag was expressed in E. coli and purified by affinity chromatography. To prepare GTP-bound form and GDP-bound form of KRAS G12C protein, 50 μM KRAS G12C protein was incubated with 1 mM GMPPNP (Guanosine-5′-[(β,γ)-imido]triphosphate, Tetralithium salt) (Jena Bioscience GmbH) and 1 mM GDP, respectively, in a loading buffer (20 mM Tris-HCl (pH 7.5), 50 mM NaCl, 1 mM DTT and 2.5 mM EDTA) for 1 hour on ice. After the incubation, MgCl2 was added to a final concentration of 10 mM, followed by incubation at room temperature for 30 minutes. The mixture was allowed to pass through a NAP-5 column to remove free nucleotides and purified, and the resultant nucleotide-bound KRAS G12C protein was used for compound evaluation.
For the measurement of the inhibitory activity of compounds on interaction between KRAS G12C and cRAF-RBD, GMPPNP-bound KRAS G12C protein was incubated with various concentrations of compound in a reaction buffer (20 mM Tris-HCl (pH 7.5), 100 mM NaCl, 1 mM MgCl2, 1 mM TCEP, 0.1% Tween 20) at 25° C. for 1 hour. After the incubation, recombinant cRAF-RBD and Alpha detection reagents were added and incubated at room temperature for 1.5 hours for binding. Interaction of KRAS G12C and cRAF-RBD was monitored by measuring Alpha signal. Inhibition % was calculated using the signal from the reaction without test compound (DMSO control) as 0% inhibition and the signal from the reaction using GDP-bound KRAS G12C in place of GMPPNP-bound KRAS G12C as 100% inhibition. IC50 values were calculated from dose titration curve using curve fitting by XLfit software (IDBS).

[3] = Homo sapiens, MIA PaCa-2, 72 h, Table 3-1
[4] = IC50, GMPPNP-bound KRAS G12C incubated with compound 25° C. 1 hour, Table 2-1
[5] = Homo sapiens, MIA PaCa-2, 72 h, Table 3
[6] = GMPPNP-bound KRAS G12C incubated with compound 25° C. 1 hour, Table 2, read-out: IC50
[7] = IC50, GMPPNP-bound KRAS G12C incubated with compound 25° C. 1 hour, Table 2
[8] = GMPPNP-bound KRAS G12C incubated with compound 25° C. 1 hour, Table 2-1, read-out: IC50

SMILES | pIC50 [1, 3] | pIC50 [2, 8] | pIC50 ([1]; Table 3) | also measured
Cc1nc2c3c(c(C(F)(F)F)cc2n1C)-c1cccc2c(C(=O)c4cc(F)c(NC(=O)/C=C/CN[C@H]5CCOC5)c(F)c4)cn(c12)CCN3C (single isomer, unassigned) [Example 87] | 8.49 |  |  | pIC50 [2, 4]: 7.74
Cc1nc2c3c(c(C(F)(F)F)cc2n1C)-c1cccn2c(C(=O)c4cc(F)c(NC(=O)/C=C/CNC5(C)CCOCC5)c(F)c4)cc(c12)CCO3 [Example 39] |  |  |  | pIC50 [1, 5]: 7.92; pIC50 [2, 6]: 8.10
CO[C@H]1CC[C@H](NC/C=C/C(=O)Nc2c(F)cc(C(=O)c3cn4c5c(cccc35)-c3c(C)cc5c(nc(C)n5C)c3O[C@H](C)C4)cc2F)CC1 [Example 19, (E)-N-(2,6-difluoro-4-((R)-6,8,9,12-tetramethy 1-12,13-dihydro-8H-imidazo[4″,5″:3′,4′]benzo[1′,2′:7,8][1,4]oxazocino[6,5,4-hi]indole-2-carbonyl)phenyl)-4-(((1,4r)-4-methoxycyclohexyl)amino)but-2-enamide] |  |  |  | pIC50 [1, 5]: 5.48; pIC50 [2, 7]: < 5.17
COCCn1c(C)nc2c3c(c(OC)cc21)-c1cccn2c(C(=O)c4cc(F)c(NC(=O)/C=C/CN[C@H]5CCOC5)c(F)c4)cc(c12)CCN3C (single isomer, unassigned) [Example 201] | 8.23 | 7.76 |  | 
CO[C@H]1CC[C@H](NC/C=C/C(=O)Nc2c(F)cc(C(=O)c3cn4c5c(cccc35)-c3c(C)cc5c(nc(C)n5C)c3OCC4)cc2F)CC1 (single isomer, unassigned) [Example 14-2, (E)-N-(2,6-difluoro-4-(6,8,9-trimethyl-12,13-dihydro-8H-imidazo[4″,5″:3′,4′]benzo[1′,2′:7,8][1,4]oxazocino[6,5,4-hi]indole-2-carbonyl)phenyl)-4-(((11,4r)-4-methoxycyclohexyl)amino)but-2-enamide] |  |  | 5.43 | pIC50 [2, 7]: < 5.17
COc1cc2c(nc(C)n2C)c2c1-c1cccn3c(C(=O)c4cc(F)c(NC(=O)/C=C/CN[C@H]5CCOC5)c(F)c4)cc(c13)CCN2C (single isomer, unassigned) [Example 129] | 8.15 | 8.06 |  | 
COc1cc2c(nc(C)n2C)c2c1-c1cccn3c(C(=O)c4cc(F)c(NC(=O)/C=C/CNC(C)(C)C)c(F)c4)cc(c13)CCN2C [Example 79, (E)-4-(tert-butylamino)-N-(2,6-difluoro-4-(7-methoxy-9,10,12-trimeth-yl-9,12,13,14-tetrahydro-imidazo[4″,5″:5′,6′]benzo-[1′,2′:2,3]azocino[4,5,6-hi]indolizine-2-carbonyl)-phenyl)but-2-enamide] | 7.97 | 7.48 |  | 
CO[C@H]1CC[C@H](NC/C=C/C(=O)Nc2c(F)cc(C(=O)c3cn4c5c(cccc35)-c3c(C)cc5c(nc(C)n5C)c3CCC4)cc2F)CC1 [Example 27, (E)-N-(2,6-difluoro-4-(6,8,9-trimethyl-8,11,12,13-tetrahydroimidazo[4″,5″:3′,4′]benzo[1′,2′:4,5]azocino[3,2,1-hi]indole-2-carbonyl)phenyl)-4-(((1r,4r)-4-methoxycyclohexyl)amino)but-2-enamide] |  |  |  | pIC50 [1, 5]: 7.06; pIC50 [2, 7]: 7.19
Cc1nc2c3c(c(C(F)(F)F)cc2n1C)-c1cccn2c(C(=O)c4cc(F)c(NC(=O)/C=C/CN(C)C)c(F)c4)cc(c12)CCO3 (single isomer, unassigned) [Example 38-1] |  |  | 5.08 | pIC50 [2, 6]: < 5.17
Cc1nc2c3c(c(C(F)(F)F)cc2n1C)-c1cccn2c(C(=O)c4cc(F)c(NC(=O)/C=C/CN(C)C)c(F)c4)cc(c12)CCO3 (single isomer, unassigned) [Example 38-2] |  |  | 7.72 | pIC50 [2, 6]: 7.57
CN1CCc2cc(C(=O)c3cc(F)c(NC(=O)/C=C/CN[C@@H]4CCCC[C@H]4O)c(F)c3)n3cccc(c23)-c2c(C(F)(F)F)cc3c(ncn3C)c21 [Example 100, (E)-N-(4-(9,12-dimethyl-7-(trifluoromethyl)-9,12,13,14-tetrahydro-imidazo[4″,5″:5′,6′]benzo-[1′,2′:2,3]azocino[4,5,6-hi]indolizine-2-carbonyl)-2,6-difluorophenyl)-4-(((1R,2R)-2-hydroxy-cyclohexyl)amino)but-2-enamide] | 7.63 | 7.46 |  | 
CO[C@H]1CC[C@H](NC/C=C/C(=O)Nc2ccc(C(=O)c3cn4c5c(cccc35)-c3c(C(F)(F)F)cc5c(nc(C)n5C)c3N(C)CC4)nc2)CC1 [Example 88, (E)-4-(((1r,4r)-4-methoxy-cyclohexyl)amino)-N-(6-(8,9,11-trimethyl-6-(trifluoromethyl)-8,11,12,13-tetrahydro-imidazo[4″,5″:5′,6′]benzo-[1′,2′:5,6][1,4]diazocino-[7,8,1-hi]indole-2-carbon-yl)pyridin-3-yl)but-2-enamide] | 8.16 | 7.40 |  | 
CO[C@H]1CC[C@H](NC/C=C/C(=O)Nc2c(F)cc(C(=O)c3cn4c5c(cccc35)-c3c(cccc3C(F)(F)F)OCC4)cc2F)CC1 (single isomer, unassigned) [Example 11-1] |  |  | 5.11 | pIC50 [2, 7]: < 5.17
CO[C@H]1CC[C@H](NC/C=C/C(=O)Nc2c(F)cc(C(=O)c3cn4c5c(cccc35)-c3c(Cl)cccc3OCC4)cc2F)CC1 (single isomer, unassigned) [Example 1-1] |  |  | 5.11 | pIC50 [2, 7]: < 5.17
Cc1nc2c3c(c(C(F)(F)F)cc2n1C)-c1cccc2c(C(=O)c4cc(F)c(NC(=O)/C=C/CN[C@@H]5CCOC5)c(F)c4)cn(c12)CCN3C (single isomer, unassigned) [Example 95] | 7.94 |  |  | pIC50 [2, 4]: 7.51
COc1cc(N2CCCC2=O)cc2c1-c1cccn3c(C(=O)c4cc(F)c(NC(=O)/C=C/CNC5(C)CC5)c(F)c4)cc(c13)CCO2 [Example 210] | 7.22 | 7.42 |  | 
Cc1c2cc(C(F)(F)F)c3c(c2nn1C)N(C)CCc1nc(C(=O)c2cc(F)c(NC(=O)/C=C/CN[C@H]4CCOC4)c(F)c2)n2cccc-3c12 (single isomer, unassigned) [Example 176] | 7.60 | 7.17 |  | 
CO[C@H]1CC[C@H](NC/C=C/C(=O)Nc2c(F)cc(C(=O)c3cc4c5c(cccn35)-c3c(C)cc5c(nc(C)n5C)c3OCC4)cc2F)CC1 [Example 32, (E)-N-(2,6-difluoro-4-(7,9,10-trimethyl-13,14-dihydro-9H-imidazo[4″,5″:5′,6]benzo[1′,2′:2,3]oxocino[4,5,6-hi]indolizine-2-carbonyl)phenyl)-4-(((1,4r)-4-methoxycyclohexyl)amino)but-2-enamide] |  |  |  | pIC50 [1, 5]: 7.07; pIC50 [2, 6]: 7.57
CO[C@H]1CC[C@H](NC/C=C/C(=O)Nc2c(F)cc(C(=O)c3cc4c5c(cccn35)-c3c(C(F)(F)F)cc5c(nc(C)n5C)c3OC(C)C4)cc2F)CC1 (some centres unmarked) [Example 43, (E)-N-(2,6-difluoro-4-(9,10,13-trimethyl-7-(trifluoromethyl)-13,14-dihydro-9H-imidazo[4″,5″:5′,6′]benzo[1′,2′:2,3]oxocino[4,5,6-hi]indolizine-2-carbonyl)phenyl)-4-(((1r,4r)-4-methoxycyclohexyl)amino)but-2-enamide] |  |  | 7.85 | pIC50 [2, 6]: 7.77
